These results are taken from patent publication US20250122171A1, “Substituted Amine Compounds, Compositions and Methods of Use” (Deep Apple Therapeutics, Inc., priority 2023, published 2025).

pIC50: −log10 of the molar value. Bounds are passed on as bounds.

What is called pIC50 is the IC50 on a negative log10 scale, so that one unit is a factor of ten. Read a high pIC50 as a low IC50.

For this assay, the target named is T1, human MRGPRX2 (Homo sapiens, UniProt Q96LB1).
T1 construct: expressed in transfected cells; host or cells: FlpIn TRex HEK293 (TRex-MRGPRX2-HEK), doxycycline-induced
T1 sequence (Q96LB1 1-330): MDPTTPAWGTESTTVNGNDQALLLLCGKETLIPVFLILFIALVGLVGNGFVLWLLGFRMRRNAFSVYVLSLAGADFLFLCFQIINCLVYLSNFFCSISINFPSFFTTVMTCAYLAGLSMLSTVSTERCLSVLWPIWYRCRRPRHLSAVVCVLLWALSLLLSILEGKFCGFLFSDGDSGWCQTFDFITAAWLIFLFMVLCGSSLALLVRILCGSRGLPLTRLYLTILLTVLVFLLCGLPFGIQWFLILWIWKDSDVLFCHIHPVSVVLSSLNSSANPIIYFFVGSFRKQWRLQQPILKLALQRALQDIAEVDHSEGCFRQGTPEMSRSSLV
The assay can be described thus: MRGPRX2 Activity Assay (IP-1 HTRF, antagonist mode). To be noted: FlpIn TRex-MRGPRX2-HEK293 cells; versus 1 μM Cortistatin-14 agonist; 30 minutes preincubation. In kind it is cell-based. As to the method: FlpIn TRex-MRGPRX2-HEK293 cells (herein TRex-MRPGRX2-HEK) stably transfected to express human MRGPRX2 were maintained at 37° C. with 5% CO2 and grown in DMEM supplemented with 10% FBS, 1% L-Glutamate, 1% penicillin/streptomycin, 100 ug/mL Hygromycin B, and 15 ug/mL Blasticidin.
GOI (MRGPRX2) expression was induced with 100 ng/mL of Doxycycline 18-24 hours prior to experiment, in flask. On the day of experiment, cells were lifted with TripLE Express and seeded in 384-well white walled opaque bottomed, assay plates, at 8,000 cells per well in 5 uL freshly made assay buffer (HBSS, 20 mM HEPES, 0.1% BSA and 10 mM LiCl). Compounds solubilized in 100% DMSO at 30 mM were serially diluted (1:4) first in 100% DMSO, and an intermediate plate of assay buffer was used to establish a final top concentration of 30 uM (in assay plate). Final DMSO concentration was kept constant at 1% across assay plates. […], at 30 mM stock concentration was solubilized in HBSS+0.1% BSA, stored at −20° C. in 5 μL aliquots and discarded after one freeze-thaw cycle. […].
Antagonist equilibrium was established with 30 minutes preincubation, followed by no wash, direct addition, and stimulation of agonist for 1 hour at 37° C./5% CO2. IP-1 standards and HTRF detection reagents were added according to the IP-one Gq kit protocol purchased from CisBio (part number 62IPAPEJ). The plate was read on an EnVision XCite plate reader. The HTRF ratio was then calculated from raw data (channel1/channel2×10,000) and analyzed using either GraphPad Prism or a custom Python script to calculate IC50 using Log[Antagonist] vs. response (4 parameter) nonlinear regression.
(In general: In TR-FRET formats the signal depends on donor and acceptor labels being close together.)
As to `C[C@@H](C(=O)Nc1cn2c(n1)[C@H](O)C[C@@H]2c1cc(F)cc(F)c1)N1CCC(F)(F)[C@@H](c2ccc(=O)[nH]c2)C1` (single isomer, unassigned) [Compound 515], the pIC50 was 5.34.

In turn, `C[C@H](C(=O)Nc1cn2c(n1)CC[C@@H]2c1cc(F)cc(F)c1)N1CCOCC1` (single isomer, unassigned) [Compound 512] had a pIC50 of 5.39.

For `C[C@@H](C(=O)Nc1cn2c(n1)CC[C@H]2c1cc(F)cc(F)c1)N1CCC(F)(F)[C@H](c2ccc(=O)[nH]c2)C1` (single isomer, unassigned) [Compound 496], the pIC50 was 5.46.

`C[C@@H](C(=O)Nc1cn(Cc2cc(F)cc(F)c2)cn1)N1CCC(F)(F)[C@@H](c2ccc(=O)[nH]c2)C1` (single isomer, unassigned) [Compound 54] gave a negative logarithm of the IC50 (pIC50) of 6.36.

Take `C[C@@H](C(=O)Nc1cc2n(n1)CC[C@H]2c1cc(F)cc(F)c1)N1CCC(F)(F)[C@@H](c2cc[n+]([O-])cc2)C1` (single isomer, unassigned) [Compound 550]: the pIC50 is 8.22.

`C[C@@H](C(=O)Nc1cn2c(n1)CC[C@@H]2c1cc(F)cc(F)c1)N1CCC(F)(F)[C@@H](c2cc[n+]([O-])c(CO)c2)C1` (single isomer, unassigned) [Compound 525]: the negative logarithm of the IC50 (pIC50) is 5.26.

Take `C[C@@H](C(=O)Nc1cn(Cc2cccc(F)c2Cl)cn1)N1CCC(F)(F)[C@@H](c2cc[n+]([O-])cc2)C1` [Compound 51, 4-((S)-1-((S)-1-((1-(2-chloro-3-fluorobenzyl)-1H-imidazol-4-yl)amino)-1-oxopropan-2-yl)-4,4-difluoropiperidin-3-yl)pyridine 1-oxide]: the negative logarithm of the IC50 (pIC50) was 7.47.

Take `C[C@@H](C(=O)Nc1coc(Cc2cc(F)cc(F)c2)n1)N1CCC(F)(F)[C@@H](c2cc[n+]([O-])cc2)C1` (single isomer, unassigned) [Compound 27]: the pIC50 is 6.23.

For `C[C@@H](C(=O)Nc1cn(Cc2cc(F)c(F)c(F)c2F)cn1)N1CCC(F)(F)[C@@H](c2cc[n+]([O-])cc2)C1` [Compound 32, 4-[(3S)-4,4-difluoro-1-[(1S)-1-({1-[(2,3,4,5-tetrafluorophenyl)methyl]imidazol-4-yl}carbamoyl)ethyl]piperidin-3-yl]pyridin-1-ium-1-olate], the pIC50 is 6.98.

The compound `C[C@@H](C(=O)Nc1cn(Cc2cc(Cl)cc(Cl)c2)cn1)N1CCC(F)(F)[C@@H](c2cc[n+]([O-])cc2)C1` [Compound 50, 4-((S)-1-((S)-1-((1-(3,5-dichlorobenzyl)-1H-imidazol-4-yl)amino)-1-oxopropan-2-yl)-4,4-difluoropiperidin-3-yl)pyridine 1-oxide] showed a pIC50 of 7.35.

`Cc1nc(NC(=O)[C@@H](C)N2CCC(F)(F)CC2)cn1Cc1cc(F)cc(F)c1` (single isomer, unassigned) [Compound 22] had a pIC50 of 6.91.

The compound `C[C@@H](C(=O)Nc1cn(Cc2cc(F)cc(F)c2)cn1)N1CCC(F)(F)[C@@H](c2c[nH]c(=O)c(CO)c2)C1` (single isomer, unassigned) [Compound 71] gave a pIC50 of 5.63.

As to `C[C@@H](C(=O)Nc1cn(Cc2cc(F)cc(F)c2)c(C(F)F)n1)N1CCC(F)(F)[C@@H](c2cc[n+]([O-])cc2)C1` (single isomer, unassigned) [Compound 82], the pIC50 is 5.93.

`C[C@H](C(=O)Nc1cn2c(n1)CC[C@@H]2c1cc(F)cc(F)c1)N1CCC(F)(F)[C@@H](c2cc[n+]([O-])cc2)C1` (single isomer, unassigned) [Compound 488] showed a negative-log IC50 (pIC50) of 5.06.

`C[C@H](C(=O)Nc1noc(Cc2cc(F)cc(F)c2)n1)N1CCC(F)(F)[C@@H](c2cc[n+]([O-])cc2)C1` (single isomer, unassigned) [Compound 57]: the pIC50 was less than 5.00.

Regarding `C[C@H](C(=O)Nc1nc(Cc2cc(F)cc(F)c2)no1)N1CCC(F)(F)[C@@H](c2cc[n+]([O-])cc2)C1` (single isomer, unassigned) [Compound 59], the pIC50 is 6.36.

In turn, `C[C@@H](C(=O)Nc1cn(Cc2cc(F)cc(F)c2)c(C(F)(F)F)n1)N1CCC(F)(F)[C@@H](c2cc[n+]([O-])cc2)C1` (single isomer, unassigned) [Compound 25] gave a pIC50 of less than 5.00.

Compound `C[C@@H](C(=O)Nc1cn2c(n1)CC[C@@H]2c1cc(F)cc(F)c1)N1CCC(F)(F)[C@H](c2cc[n+]([O-])c(CO)c2)C1` (single isomer, unassigned) [Compound 526] gave a negative logarithm of the IC50 (pIC50) of 8.01.

In turn, `C[C@H](C(=O)Nc1cn(Cc2cc(F)cc(F)c2)cn1)N1CCC(F)(F)[C@H](c2c[nH]c(=O)c(CO)c2)C1` (single isomer, unassigned) [Compound 74] showed a pIC50 of less than 4.52.

For `C[C@@H](C(=O)Nc1cn(Cc2cc(F)c(F)cc2F)cn1)N1CCC(F)(F)[C@@H](c2cc[n+]([O-])cc2)C1` [Compound 65, 4-((S)-4,4-difluoro-1-((S)-1-oxo-1-((1-(2,4,5-trifluorobenzyl)-1H-imidazol-4-yl)amino)propan-2-yl)piperidin-3-yl)pyridine 1-oxide], the pIC50 was 6.30.

For the compound `C[C@@H](C(=O)Nc1nc2cc3c(cc2s1)OCO3)N1CCC(F)(F)[C@@H](c2cc[n+]([O-])cc2)C1` (single isomer, unassigned) [Compound 12], the pIC50 was 6.71.

The compound “(S)-2-((S)-4,4-difluoro-3-(6-oxo-1,6-dihydropyridin-3-yl)piperidin-1-yl)-N-(1-(3,5-difluorobenzyl)-1H-imidazol-4-yl)propanamide [Compound 76]” had a pIC50 of 5.65.

Compound `C[C@@H](C(=O)Nc1cn(Cc2cc(Cl)ccc2F)cn1)N1CCC(F)(F)[C@@H](c2cc[n+]([O-])cc2)C1` [Compound 33, 4-((S)-1-((S)-1-((1-(5-chloro-2-fluorobenzyl)-1H-imidazol-4-yl)amino)-1-oxopropan-2-yl)-4,4-difluoropiperidin-3-yl)pyridine 1-oxide] gave a pIC50 of 7.52.

As to `Cc1nc(NC(=O)[C@@H](C)N2CCOCC2)cn1Cc1cc(F)cc(F)c1` (single isomer, unassigned) [Compound 24], the pIC50 is 5.41.

As to `C[C@H](c1cc(F)cc(F)c1)n1cnc(NC(=O)[C@H](C)N2CCC(F)(F)[C@@H](c3cc[n+]([O-])cc3)C2)c1` (single isomer, unassigned) [Compound 14], the negative-log IC50 (pIC50) was 6.33.

As to `C[C@H](C(=O)Nc1cn(Cc2ccc(F)cc2F)c(C(F)(F)F)n1)N1CCC(F)(F)[C@@H](c2cc[n+]([O-])cc2)C1` (single isomer, unassigned) [Compound 8], the pIC50 is 5.03.

`C[C@H](C(=O)Nc1cn(Cc2cc(F)cc(F)c2)c(CF)n1)N1CCC(F)(F)[C@@H](c2cc[n+]([O-])cc2)C1` (single isomer, unassigned) [Compound 61] showed a pIC50 of 6.32.

Turning to `C[C@@H](C(=O)Nc1cn(Cc2cccc(F)c2)cn1)N1CCC(F)(F)[C@@H](c2cc[n+]([O-])cc2)C1` [Compound 38, 4-((S)-4,4-difluoro-1-((S)-1-((1-(3-fluorobenzyl)-1H-imidazol-4-yl)amino)-1-oxopropan-2-yl)piperidin-3-yl)pyridine 1-oxide], the pIC50 was 7.03.

With `C[C@@H](C(=O)Nc1cn2c(n1)CC[C@@H]2c1cc(F)cc(F)c1)N1CCC(F)(F)[C@@H](c2ccc(=O)n(C)c2)C1` (single isomer, unassigned) [Compound 532], the pIC50 is 5.28.
